Assay results published in patent US20250270246A1, “LINCOSAMIDES AND USES THEREOF” (President and Fellows of Harvard College, priority 2022, published 2025).
Counter-ions that a name gives are not always drawn. Like-named read-outs stand apart in the source and are kept apart here.

Columns and labels:
E. coli HAV#040, LptD = test: MIC by broth microdilution (CLSI); format: cell-based; conditions: Escherichia coli, 24 h, read-out: MIC E. coli HAV#040, LptD
Procedure, shortened: (§1)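 CLSI broth microdilution in cation-adjusted Mueller-Hinton broth, inoculum 5×10^5 CFU/mL, compounds typically 64-0.06 μg/mL with 2.5% final DMSO. MIC is the lowest concentration preventing visible growth after 24 h. For P. aeruginosa, broth was pre-treated with Chelex 100 resin.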

[1] = test system: S. aureus ATCC 29213 (HAV#001); test: MIC by broth microdilution (CLSI); format: cell-based; conditions: Staphylococcus aureus, ATCC29213, 24 h, read-out: MIC S. aureus ATCC 29213
Procedure, shortened: as §1

[2] = test system: E. coli ATCC 25922 (HAV#006); test: MIC by broth microdilution (CLSI); format: cell-based; conditions: Escherichia coli, ATCC25922, 24 h, read-out: MIC E. coli ATCC 25922
Procedure, shortened: as §1

[3] = test system: S. aureus HAV#031, c-ermA; test: MIC by broth microdilution (CLSI); format: cell-based; conditions: Staphylococcus aureus; c-ermA; CaMHB, 24 h incubation; read-out: MIC S. aureus HAV#031, c-ermA
Procedure, shortened: as §1

[4] = test system: E. faecalis ATCC 29212 (HAV#005); test: MIC by broth microdilution (CLSI); format: cell-based; conditions: Enterococcus faecalis, ATCC29212, 24 h, read-out: MIC E. faecalis ATCC 29212
Procedure, shortened: as §1

[5] = test system: A. baumannii ATCC 19606 (HAV#010); test: MIC by broth microdilution (CLSI); format: cell-based; conditions: Acinetobacter baumannii, ATCC19606, 24 h, HAV#010, ATCC 19606; CaMHB, 24 h incubation; read-out: MIC A. baumannii ATCC 19606
Procedure, shortened: as §1

E. coli HAV#038, ΔTolC = test: MIC by broth microdilution (CLSI); format: cell-based; conditions: Escherichia coli, 24 h, read-out: MIC E. coli HAV#038, ΔTolC
Procedure, shortened: as §1

S. aureus HAV#216, cfr = test: MIC by broth microdilution (CLSI); format: cell-based; conditions: Staphylococcus aureus; cfr; CaMHB, 24 h incubation; read-out: MIC S. aureus HAV#216, cfr
Procedure, shortened: as §1

[6] = test system: K. pneumoniae HAV#402, FQ-R; test: MIC by broth microdilution (CLSI); format: cell-based; conditions: Klebsiella pneumoniae; FQ-R; CaMHB, 24 h incubation; read-out: MIC K. pneumoniae HAV#402, FQ-R
Procedure, shortened: as §1

[7] = test system: E. faecium HAV#318, VRE; clinical; test: MIC by broth microdilution (CLSI); format: cell-based; conditions: Enterococcus faecium, CaMHB, 24 h incubation, read-out: MIC E. faecium HAV#318, VRE
Procedure, shortened: as §1

[8] = rcm bond, Grubbs II (20 mol%)/benzoquinone, toluene, 0.25 h
E. coli lptD mutant = test: MIC by broth microdilution (CLSI); format: cell-based; conditions: Escherichia coli, 24 h, read-out: MIC E. coli lptD mutant, lptD mutant / ΔlptD mutant; CaMHB, 24 h incubation
Procedure, shortened: as §1

E. coli Clinical (armA) = test: MIC by broth microdilution (CLSI); format: cell-based; conditions: Escherichia coli, 24 h, read-out: MIC E. coli Clinical (armA)
Procedure, shortened: as §1

E. coli ΔtolC = test: MIC by broth microdilution (CLSI); format: cell-based; conditions: Escherichia coli, 24 h, read-out: MIC E. coli ΔtolC, ΔtolC; CaMHB, 24 h incubation
Procedure, shortened: as §1

K. pneumoniae JMI-991193 = test: MIC by broth microdilution (CLSI); format: cell-based; conditions: Klebsiella pneumoniae, JMI991193, 24 h, read-out: MIC K. pneumoniae JMI-991193
Procedure, shortened: as §1

S. aureus MMX 3035 = test: MIC by broth microdilution (CLSI); format: cell-based; conditions: Staphylococcus aureus, MMX3035, 24 h, read-out: MIC S. aureus MMX 3035
Procedure, shortened: as §1

S. aureus Clinical (cfr) = test: MIC by broth microdilution (CLSI); format: cell-based; conditions: Staphylococcus aureus, 24 h, read-out: MIC S. aureus Clinical (cfr)
Procedure, shortened: as §1

[9] = HAV#001, ATCC 29213, CaMHB, 24 h incubation
[10] = HAV#006, ATCC 25922, CaMHB, 24 h incubation
[11] = HAV#005, ATCC 29212, CaMHB, 24 h incubation

| Compound | MIC (E. coli HAV#040, LptD) [µg/mL] | MIC [1, 9] [µg/mL] | MIC [2, 10] [µg/mL] | MIC [3] [µg/mL] | MIC [5] [µg/mL] | MIC (E. coli HAV#038, ΔTolC) [µg/mL] | MIC (S. aureus HAV#216, cfr) [µg/mL] | MIC [6] [µg/mL] | MIC [1] [µg/mL] | MIC (E. coli lptD mutant) [µg/mL] | MIC [2] [µg/mL] | MIC (E. coli Clinical (armA)) [µg/mL] | MIC [4] [µg/mL] | MIC (E. coli ΔtolC) [µg/mL] | MIC (K. pneumoniae JMI-991193) [µg/mL] | MIC (S. aureus MMX 3035) [µg/mL] | MIC (S. aureus Clinical (cfr)) [µg/mL] | further results |
| --- | --- | --- | --- | --- | --- | --- | --- | --- | --- | --- | --- | --- | --- | --- | --- | --- | --- | --- |
| CC(C)C[C@@H]1CCO[C@@H]2[C@H](CN[C@@H]2C(=O)N[C@@H]2CC(C)(C)/C=C/CS[C@H]3O[C@H]2[C@H](O)[C@H](O)[C@H]3O)C1 [FSA1503085, (4S,5aS,8S,8aR)-4-isobutyl-N-((1R,8R,9R,10R,11S,12R,E)-10,11,12-trihydroxy-6,6-dimethyl-13-oxa-2-thiabicyclo[7.3.1]tridec-4-en-8-yl) octahydro-2H-oxepino[2,3-c]pyrrole-8-carboxamide formate salt] | 8 | 0.25 | 64 | 32 | 64 | 4 | 8 | > 64 |  |  |  |  |  |  |  |  |  | MIC [4, 11]: 0.25 µg/mL |
| CC(C)C[C@@H]1CCO[C@@H]2[C@H](CN[C@@H]2C(=O)N[C@H]2[C@H]3O[C@H](SCCCCC2(C)C)[C@H](O)[C@@H](O)[C@H]3O)C1 [FSA1504068, (4S,5aS,8S,8aR)-4-isobutyl-N-((1R,8R,9R,10R,11S,12R)-10,11,12-trihydroxy-7,7-dimethyl-13-oxa-2-thiabicyclo[7.3.1]tridecan-8-yl) octahydro-2H-oxepino[2,3-c]pyrrole-8-carboxamide formate salt] | 64 | 0.5 | 64 | > 64 | > 64 | 32 | > 64 | > 64 |  |  |  |  |  |  |  |  |  | MIC [4, 11]: 2 µg/mL |
| CC(C)C[C@@H]1CCO[C@@H]2[C@H](CN[C@@H]2C(=O)N[C@H]2[C@H]3OC(SC/C=C/CC2(C)C)[C@H](O)C(O)C3O)C1 (single isomer, unassigned) [FSA1504066A, formate salt] | 2 | ≤ 0.06 | 32 | 4 | 8 | 1 | > 64 | 32 |  |  |  |  |  |  |  |  |  | MIC [7]: 1 µg/mL |
| CC(C)(C)[S@@](=O)N[C@@H]1C/C=C\CC(CO[Si](C)(C)C(C)(C)C)S[C@H]2O[C@H]1[C@H](OC(=O)c1ccccc1)[C@H](OC(=O)c1ccccc1)[C@H]2OC(=O)c1ccccc1 (stereo partly drawn) |  |  |  |  |  |  |  |  |  |  |  |  |  |  |  |  |  | ring closure, isolated yield ([8]; from C=CCC(CO[Si](C)(C)C(C)(C)C)S[C@H]1O[C@H]([C@@H](CC=C)N[S@](=O)C(C)(C)C)[C@H](OC(=O)c2ccccc2)[C@H](OC(=O)c2ccccc2)[C@H]1OC(=O)c1ccccc1, 10-membered ring, 1.0 mM): 85% |
| CC(C)C[C@@H]1CCO[C@@H]2[C@H](CN[C@@H]2C(=O)N[C@@H]2C/C=C\C[C@H](CNC(=O)c3ccc(F)cc3)S[C@H]3O[C@H]2[C@H](O)[C@H](O)[C@H]3O)C1 [FSA1608089, (4S,5aS,8S,8aR)—N-((1R,3R,8R,9R,10R,11S,12R,Z)-3-((4-fluorobenzamido)methyl)-10,11,12-trihydroxy-13-oxa-2-thiabicyclo[7.3.1]tridec-5-en-8-yl)-4-isobutyloctahydro-2H-oxepino[2,3-c]pyrrole-8-carboxamide formate salt] |  |  |  |  |  |  |  |  | 2 | 1 | 16 | 64 | 1 | 2 | > 64 | 8 | 8 |  |
| CC(=O)O[C@@H]1[C@H](OC(C)=O)[C@@H](OC(C)=O)[C@@H]2O[C@@H]1[C@H](N[S@](=O)C(C)(C)C)C(C)/C=C\CCCCS2 (stereo partly drawn) |  |  |  |  |  |  |  |  |  |  |  |  |  |  |  |  |  | ring closure, isolated yield ([8]; from C=CCCCCS[C@H]1O[C@H]([C@H](N[S@](=O)C(C)(C)C)[C@H](C)C=C)[C@H](OC(C)=O)[C@H](OC(C)=O)[C@H]1OC(C)=O, 12-membered ring, 2.0 mM): 6.3% |
| CC(C)C[C@@H]1CCO[C@@H]2[C@H](CN[C@@H]2C(=O)N[C@@H]2C/C=C\C[C@@H](CNC(=O)c3ccc(F)cc3)S[C@H]3O[C@H]2[C@H](O)[C@H](O)[C@H]3O)C1 [FSA1608088, (4S,5aS,8S,8aR)—N-((1R,3S,8R,9R,10R,11S,12R,Z)-3-((4-fluorobenzamido)methyl)-10,11,12-trihydroxy-13-oxa-2-thiabicyclo[7.3.1]tridec-5-en-8-yl)-4-isobutyloctahydro-2H-oxepino[2,3-c]pyrrole-8-carboxamide formate salt] |  |  |  |  |  |  |  |  | 1 | 0.5 | 8 | 16 | 1 | 2 | 32 | 8 | 8 |  |
| CC(C)C[C@@H]1CCO[C@@H]2[C@H](CN[C@@H]2C(=O)N[C@@H]2C/C=C\C[C@H](CN)S[C@H]3O[C@H]2[C@H](O)[C@H](O)[C@H]3O)C1 [FSA1608082, (4S,5aS,8S,8aR)—N-((1R,3R,8R,9R,10R,11S,12R,Z)-3-(aminomethyl)-10,11,12-trihydroxy-13-oxa-2-thiabicyclo[7.3.1]tridec-5-en-8-yl)-4-isobutyloctahydro-2H-oxepino[2,3-c]pyrrole-8-carboxamide hydrochloride salt] |  |  |  |  |  |  |  |  | 1 | 1 | 32 | 64 | 2 | 2 | > 64 | 16 | 16 |  |
| CC(=O)O[C@@H]1[C@H](OC(C)=O)[C@@H](OC(C)=O)[C@@H]2O[C@@H]1[C@H](N[S@](=O)C(C)(C)C)C(C)/C=C/CCCS2 (mixture of isomers) |  |  |  |  |  |  |  |  |  |  |  |  |  |  |  |  |  | ring closure, isolated yield ([8]; from C=CCCCS[C@H]1O[C@H]([C@H](N[S@](=O)C(C)(C)C)[C@H](C)C=C)[C@H](OC(C)=O)[C@H](OC(C)=O)[C@H]1OC(C)=O, 11-membered ring, 1.9 mM): 85% |
| CC(C)C[C@@H]1CCO[C@@H]2[C@H](CN[C@@H]2C(=O)N[C@H]2C3OC(SC/C=C\CC2(C)C)C(O)C(O)C3O)C1 (single isomer, unassigned) [FSA1504066B, formate salt] | 64 | 0.5 | 64 | 32 | 64 | 32 | > 64 | 64 |  |  |  |  |  |  |  |  |  | MIC [7]: 4 µg/mL |
| CC(C)C[C@@H]1CCO[C@@H]2[C@H](CN[C@@H]2C(=O)N[C@H]2[C@H]3O[C@H](S[C@H](CF)C/C=C\[C@H]2C)[C@H](O)[C@@H](O)[C@H]3O)C1 [FSA1609034, (4S,5aS,8S,8aR)—N-((1R,3S,7R,8R,9R,10R,11S,12R,Z)-3-(fluoromethyl)-10,11,12-trihydroxy-7-methyl-13-oxa-2-thiabicyclo[7.3.1]tridec-5-en-8-yl)-4-isobutyloctahydro-2H-oxepino[2,3-c]pyrrole-8-carboxamide formate salt] |  |  |  |  |  |  |  |  | ≤ 0.06 | 0.25 | 1 | 2 | ≤ 0.06 | ≤ 0.06 | 2 | 0.25 | 0.25 |  |
| CC(C)C[C@@H]1CCO[C@@H]2[C@H](CN[C@@H]2C(=O)N[C@@H]2C/C=C\C[C@@H](CN)S[C@H]3O[C@H]2[C@H](O)[C@H](O)[C@H]3O)C1 [FSA1608083, (4S,5aS,8S,8aR)—N-((1R,3S,8R,9R,10R,11S,12R,Z)-3-(aminomethyl)-10,11,12-trihydroxy-13-oxa-2-thiabicyclo[7.3.1]tridec-5-en-8-yl)-4-isobutyloctahydro-2H-oxepino[2,3-c]pyrrole-8-carboxamide hydrochloride salt] |  |  |  |  |  |  |  |  | 1 | 1 | 16 | 64 | 1 | 2 | > 64 | 16 | 32 |  |
